Consider 16 compounds from US20230257372A1 (CHONG KUN DANG PHARMACEUTICAL CORP., priority 2020, published 2023).

Read-outs that look alike come from different tables or passages of the source.

The target of one experiment is T1, human recombinant HDAC6 (Homo sapiens, UniProt Q9UBN7).
T1 construct: purchased Calbiochem Inc. 382180
T1 sequence (Q9UBN7 1-1215): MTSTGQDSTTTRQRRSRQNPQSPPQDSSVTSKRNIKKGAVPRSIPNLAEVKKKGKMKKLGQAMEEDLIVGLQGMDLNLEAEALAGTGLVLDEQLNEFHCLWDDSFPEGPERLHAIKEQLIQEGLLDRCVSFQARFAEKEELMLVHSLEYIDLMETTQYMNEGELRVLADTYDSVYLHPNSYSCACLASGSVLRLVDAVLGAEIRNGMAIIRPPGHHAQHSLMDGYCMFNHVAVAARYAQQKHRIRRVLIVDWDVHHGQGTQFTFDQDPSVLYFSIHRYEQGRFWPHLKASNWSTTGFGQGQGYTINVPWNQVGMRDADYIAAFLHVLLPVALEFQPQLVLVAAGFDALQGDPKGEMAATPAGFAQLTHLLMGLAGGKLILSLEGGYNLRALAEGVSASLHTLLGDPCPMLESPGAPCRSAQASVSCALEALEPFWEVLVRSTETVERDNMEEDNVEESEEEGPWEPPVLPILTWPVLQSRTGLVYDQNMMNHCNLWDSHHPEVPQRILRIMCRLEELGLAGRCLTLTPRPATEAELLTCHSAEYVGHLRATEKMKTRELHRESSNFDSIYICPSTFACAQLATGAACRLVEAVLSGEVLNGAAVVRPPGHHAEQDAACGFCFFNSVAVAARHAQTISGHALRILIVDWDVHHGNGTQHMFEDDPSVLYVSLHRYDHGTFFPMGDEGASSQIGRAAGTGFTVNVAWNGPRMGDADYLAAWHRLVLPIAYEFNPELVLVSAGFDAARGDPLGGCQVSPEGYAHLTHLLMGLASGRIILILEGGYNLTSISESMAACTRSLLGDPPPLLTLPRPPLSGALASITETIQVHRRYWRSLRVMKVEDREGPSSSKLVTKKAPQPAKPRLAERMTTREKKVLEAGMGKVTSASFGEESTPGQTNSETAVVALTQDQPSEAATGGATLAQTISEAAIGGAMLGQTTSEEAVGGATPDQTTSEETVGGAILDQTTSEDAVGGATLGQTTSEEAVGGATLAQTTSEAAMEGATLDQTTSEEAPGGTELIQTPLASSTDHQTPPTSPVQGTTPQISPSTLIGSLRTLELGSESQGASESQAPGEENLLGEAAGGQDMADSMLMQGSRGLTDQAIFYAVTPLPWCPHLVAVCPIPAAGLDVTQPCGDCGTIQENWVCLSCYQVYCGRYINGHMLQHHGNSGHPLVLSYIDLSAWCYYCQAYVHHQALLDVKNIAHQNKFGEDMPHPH
As to the kind of experiment: HDAC6 enzyme activity inhibition (HDAC Fluorimetric Drug Discovery Kit). It counts as biochemical. In outline:
(§1)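 Fluorimetric deacetylase read-out: after 30 min with Developer II following a 60 min, 30° C reaction of recombinant enzyme ([…]) with 10 μM substrate, across five-fold serial compound dilutions.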

Experiment [1] has as its system hippocampal neurons from a Sprague-Dawley (SD) rat fetus. As to the kind of experiment: Effect of HDAC6-specific inhibitor on axonal transport of mitochondria in amyloid-beta treated neurons. It counts as cell-based. The note with it: transport velocity of mitochondria in neuronal axon after normalization; vehicle = 100%, amyloid beta treatment group = 0%; compound treatment for three hours. On the procedure: On the 17th to 18th days (E17-18) of insemination, the hippocampal neurons from a Sprague-Dawley (SD) rat fetus were cultured in a culture container for imaging, which had been coated with extracellular matrix, and were treated with amyloid-beta protein fragments at a concentration of […]. In 24 hours later, the neurons were treated with the compound on the 8th day of in vitro culture. In three hours later, the resulting neurons were treated with MitoTracker Red CMXRos (Life Technologies, NY, USA) for last five minutes to stain mitochondria. An image on the axonal transport of stained neuron mitochondria was taken with a confocal microscope (Leica SP8; Leica microsystems, UK) at an interval of one second for one minute to measure a transport velocity of each mitochondria per second with an IMARIS analysis program (BITPLANE, Zurich, Switzerland).
In result, after setting a section, in which the group treated with amyloid-beta had shown a significant decrease in the transport velocity of mitochondria compared to a vehicle, it was confirmed for 1,3,4-oxadiazole triazol derivative compounds of the present invention, stereoisomers thereof or pharmaceutically acceptable salts thereof that the vehicles is represented as 100%, the amyloid beta treatment group is represented as 0%, a velocity distribution of the compound after normalization is represented as *, 0%˜50%; **, 50%˜100%; ***, >100%.

In the next experiment the target is T2, human recombinant HDAC1 (Homo sapiens, UniProt Q13547).
T2 construct: purchased Enzo Life Science, Inc. BML-SE456
T2 sequence (Q13547 whole entry): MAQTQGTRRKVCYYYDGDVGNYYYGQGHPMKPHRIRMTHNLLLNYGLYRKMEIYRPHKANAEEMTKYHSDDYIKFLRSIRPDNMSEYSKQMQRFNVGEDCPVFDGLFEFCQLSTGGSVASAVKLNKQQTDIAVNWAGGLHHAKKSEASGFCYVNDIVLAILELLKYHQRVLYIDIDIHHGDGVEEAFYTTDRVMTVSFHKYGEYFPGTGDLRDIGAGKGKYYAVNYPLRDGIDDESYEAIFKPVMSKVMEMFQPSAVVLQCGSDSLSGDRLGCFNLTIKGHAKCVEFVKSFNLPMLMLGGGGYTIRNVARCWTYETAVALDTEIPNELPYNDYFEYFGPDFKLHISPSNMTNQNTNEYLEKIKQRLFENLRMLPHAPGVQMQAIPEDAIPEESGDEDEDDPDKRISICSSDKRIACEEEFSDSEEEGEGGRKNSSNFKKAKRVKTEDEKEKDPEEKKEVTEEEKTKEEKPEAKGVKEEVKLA
As to the kind of experiment: HDAC1 enzyme activity inhibition (HDAC Fluorimetric Drug Discovery Kit). It counts as biochemical. The following applies: read-out: HDAC1. The gist of the method:
as §1

Where [2] appears, read: human recombinant HDAC6, IC50 calculated with GraphPad Prism.
Where [3] appears, read: human recombinant HDAC1, IC50 calculated with GraphPad Prism.
The mark [4] stands for this setting: human recombinant HDAC6, same protocol as HDAC1.
[5] abbreviates: human recombinant HDAC1, Fluor de Lys substrate, 30° C. 60 minutes.

Turning to `Fc1cc(-c2nnc(C(F)F)o2)ccc1Cn1cc(-c2ccccc2)nn1` [Compound 3658, 2-(difluoromethyl)-5-(3-fluoro-4-((4-phenyl-1H-1,2,3-triazol-1-yl)methyl)phenyl)-1,3,4-oxadiazole], the “HDAC6 selectivity (fold)” value on human recombinant HDAC6 (HDAC1 IC50 / HDAC6 IC50) came out at 863 fold. The values for the IC50 at human recombinant HDAC6 (setting [2]) and on human recombinant HDAC1 (setting [3]) were 57.9 nM and over 50000 nM, respectively. Also, the “Velocity distribution (%)” value in experiment [1] is reported as “* (*, 0%˜50%)”.
In the case of `FC(F)c1nnc(-c2ccc(Cn3cc(-c4ccccc4)nn3)nc2)o1` [Compound 3736, 2-(difluoromethyl)-5-(6-((4-phenyl-1H-1,2,3-triazol-1-yl)methyl)pyridin-3-yl)-1,3,4-oxadiazole], the “HDAC6 selectivity (fold)” value on human recombinant HDAC6 (HDAC1 IC50 / HDAC6 IC50) is on record as 2252 fold. Further, the IC50 is 22.2 nM at human recombinant HDAC6 (setting [2]) and over 50000 nM on human recombinant HDAC1 (setting [3]). In experiment [1], the “Velocity distribution (%)” value is on record as “*** (***, >100%)”.
`Cc1ccc(-c2cn(Cc3ccc(-c4nnc(C(F)F)o4)cn3)nn2)cc1` [Compound 3738, 2-(difluoromethyl)-5-(6-((4-(p-tolyl)-1H-1,2,3-triazol-1-yl)methyl)pyridin-3-yl)-1,3,4-oxadiazole]: on human recombinant HDAC6 (HDAC1 IC50 / HDAC6 IC50), the “HDAC6 selectivity (fold)” value amounted to 1136 fold. Besides, the values for the IC50 at human recombinant HDAC6 (setting [2]) and on human recombinant HDAC1 (setting [3]) were 44 nM and over 50000 nM, respectively. Also, the “Velocity distribution (%)” value in experiment [1] is on record as “*** (***, >100%)”.
As for `CC(=O)Nc1cccc(-c2cn(Cc3ccc(-c4nnc(C(F)F)o4)cc3F)nn2)c1` [Compound 3775, N-(3-(1-(4-(5-(difluoromethyl)-1,3,4-oxadiazol-2-yl)-2-fluorobenzyl)-1H-1,2,3-triazol-4-yl)phenyl)acetamide], the “HDAC6 selectivity (fold)” value on human recombinant HDAC6 (HDAC1 IC50 / HDAC6 IC50) stood at 1712 fold. For the same compound, the IC50 is 29.2 nM at human recombinant HDAC6 (setting [2]) and over 50000 nM at human recombinant HDAC1 (setting [3]). In addition, the “Velocity distribution (%)” value in experiment [1] is “* (*, 0%˜50%)”.
`COC(=O)Nc1cccc(-c2cn(Cc3ccc(-c4nnc(C(F)F)o4)cc3F)nn2)c1` [Compound 3776, Methyl (3-(1-(4-(5-(difluoromethyl)-1,3,4-oxadiazol-2-yl)-2-fluorobenzyl)-1H-1,2,3-triazol-4-yl)phenyl)carbamate]: the “HDAC6 selectivity (fold)” value at human recombinant HDAC6 (HDAC1 IC50 / HDAC6 IC50) was 1984 fold. Further, the IC50 on human recombinant HDAC6 (setting [2]) was 25.2 nM; at human recombinant HDAC1 (setting [3]) it was over 50000 nM. Further, the “Velocity distribution (%)” value in experiment [1] is “*** (***, >100%)”.
Turning to `FC(F)c1nnc(-c2ccc(Cn3nnc(-c4ccccc4)n3)nc2)o1` [Compound 4234, 2-(difluoromethyl)-5-(6-((5-phenyl-2H-tetrazol-2-yl)methyl)pyridin-3-yl)-1,3,4-oxadiazole], in experiment [1], the “Velocity distribution (%)” value is reported as “*** (***, >100%)”. In addition, at human recombinant HDAC1 (setting [3]), the IC50 is over 50000 nM.
As for `Fc1cc(-c2nnc(C(F)F)o2)ccc1Cn1cc(-c2ccc3[nH]ncc3c2)nn1` [Compound 4345, 2-(4-((4-(1H-indazol-5-yl)-1H-1,2,3-triazol-1-yl)methyl)-3-fluorophenyl)-5-(difluoromethyl)-1,3,4-oxadiazole], the “Velocity distribution (%)” value in experiment [1] is “* (*, 0%˜50%)”. The IC50 on human recombinant HDAC1 (setting [3]) is over 50000 nM.
Turning to `CN(C)Cc1cc(Cl)cc(-c2cn(Cc3ncc(-c4nnc(C(F)F)o4)cc3F)nn2)c1` [Compound 19090, 1-(3-chloro-5-(1-((5-(5-(difluoromethyl)-1,3,4-oxadiazol-2-yl)-3-fluoropyridin-2-yl)methyl)-1H-1,2,3-triazol-4-yl)phenyl)-N,N-dimethylmethanamine], at human recombinant HDAC6 (HDAC6 over HDAC1), the “HDAC6 selectivity (fold)” value turned out to be 728 fold. Also, the IC50 at human recombinant HDAC6 (setting [4]) was 68.6 nM; at human recombinant HDAC1 (setting [5]) it was over 50000 nM.
For `Fc1cc(-c2nnc(C(F)F)o2)cnc1Cn1cc(-c2cc(Cl)cc(CN3CCC3)c2)nn1` [Compound 19091, 2-(6-((4-(3(-azetidin-1-ylmethyl)-5-chlorophenyl)-1H-1,2,3-triazol-1-yl)methyl)-5-fluoropyridin-3-yl)-5-(difluoromethyl)-1,3,4-oxadiazole] the same measures were 435 fold, 115 nM and over 50000 nM.
Turning to `Fc1cc(-c2nnc(C(F)F)o2)cnc1Cn1cc(-c2cc(Cl)cc(CN3CCCC3)c2)nn1` [Compound 19092, 2-(6-((4-(3-chloro-5-(pyrrolidin-1-ylmethyl)phenyl)-1H-1,2,3-triazol-1-yl)methyl)-5-fluoropyridin-3-yl)-5-(difluoromethyl)-1,3,4-oxadiazole], at human recombinant HDAC6 (HDAC6 over HDAC1), the “HDAC6 selectivity (fold)” value is given as 541 fold. In addition, the IC50 on human recombinant HDAC6 (setting [4]) is 92.4 nM; at human recombinant HDAC1 (setting [5]), over 50000 nM.
The matching figures for `CC1CCN(Cc2cc(Cl)cc(-c3cn(Cc4ncc(-c5nnc(C(F)F)o5)cc4F)nn3)c2)CC1` [Compound 19093, 2-(6-((4-(3-chloro-5-((4-methylpiperidin-1-yl)methyl)phenyl)-1H-1,2,3-triazol-1-yl)methyl)-5-fluoropyridin-3-yl)-5-(difluoromethyl)-1,3,4-oxadiazole]: 211 fold, 236 nM and over 50000 nM.
On to `CN(C)Cc1ccc(-c2cn(Cc3ncc(-c4nnc(C(F)F)o4)cc3F)nn2)cc1Cl` [Compound 19094, 1-(2-chloro-4-(1-((5-(5-(difluoromethyl)-1,3,4-oxadiazol-2-yl)-3-fluoropyridin-2-yl)methyl)-1H-1,2,3-triazol-4-yl)phenyl)-N,N-dimethylmethanamine], for which the “HDAC6 selectivity (fold)” value at human recombinant HDAC6 (HDAC6 over HDAC1) came to 510 fold. Moreover, the IC50 was 98 nM at human recombinant HDAC6 (setting [4]) and over 50000 nM at human recombinant HDAC1 (setting [5]).
The matching figures for `Fc1cc(-c2nnc(C(F)F)o2)cnc1Cn1cc(-c2ccc(CN3CCCC3)c(Cl)c2)nn1` [Compound 19096]: 529 fold, 94.4 nM and over 50000 nM.
In the case of `CN(C)Cc1ccc(-c2cn(Cc3ncc(-c4nnc(C(F)F)o4)cc3F)nn2)c(Cl)c1` [Compound 19098, 1-(3-chloro-4-(1-((5-(5-(difluoromethyl)-1,3,4-oxadiazol-2-yl)-3-fluoropyridin-2-yl)methyl)-1H-1,2,3-triazol-4-yl)phenyl)-N,N-dimethylmethanamine], the “HDAC6 selectivity (fold)” value on human recombinant HDAC6 (HDAC6 over HDAC1) is 1315 fold. Also, the results for the IC50 at human recombinant HDAC6 (setting [4]) and at human recombinant HDAC1 (setting [5]) were 38 nM and over 50000 nM, respectively.
For `Fc1cc(-c2nnc(C(F)F)o2)cnc1Cn1cc(-c2ccc(CN3CCC3)cc2Cl)nn1` [Compound 19099, 2-(6-((4-(4-(azetidin-1-ylmethyl)-2-chlorophenyl)-1H-1,2,3-triazol-1-yl)methyl)-5-fluoropyridin-3-yl)-5-(difluoromethyl)-1,3,4-oxadiazole] the same measures were 1061 fold, 47.1 nM and over 50000 nM.
On to `Fc1cc(-c2nnc(C(F)F)o2)cnc1Cn1cc(-c2ccc(CN3CCCC3)cc2Cl)nn1` [Compound 19100, 2-(6-((4-(2-chloro-4-(pyrrolidin-1-ylmethyl)phenyl)-1H-1,2,3-triazol-1-yl)methyl)-5-fluoropyridin-3-yl)-5-(difluoromethyl)-1,3,4-oxadiazole], for which, on human recombinant HDAC6 (HDAC6 over HDAC1), the “HDAC6 selectivity (fold)” value stood at 868 fold. The IC50 is 57.6 nM at human recombinant HDAC6 (setting [4]) and over 50000 nM on human recombinant HDAC1 (setting [5]).
